The values below are quoted from earlier work in patent US8771310B2, “Anti-no-reflow guide wire for vascular interventional procedures” (Adenopaint, LLC, priority 2007, dated 2014).

The subject of one series is patients with STEMI. The settings on record: large intravenous doses.
The test system of series [1] is patients with stable and unstable angina. The settings on record: intracoronary infusion or bolus via guide catheter prior to procedure; 24 hours after PCI.
For a further series, the system named is patients undergoing PCI. The settings on record: preloading 600 mg.
Series [2] has as its system patients undergoing PCI of SVGs. The settings on record: PCI of degenerated SVGs.

Take `Nc1ncnc2c1ncn2[C@@H]1O[C@H](CO)[C@@H](O)[C@H]1O` [adenosine]: the “cardioprotection with reperfusion therapies” value in the series with patients with STEMI was “cardioprotective affects”. For the same molecule, the “rise in CK-MB and Troponin after PCI” value in series [1] is “significantly attenuated the rise”.

For the molecule `COC(=O)[C@H](c1ccccc1Cl)N1CCc2sccc2C1` [clopidogrel], the “cell necrosis after PCI” value in the series on patients undergoing PCI is listed as “reduced cell necrosis”.

B1: abciximab: IIb/IIIa platelet inhibitor (antibody, chains of the INN, looked up, V domains shown)
VH: EVQLQQSGTVLARPGASVKMSCEASGYTFTNYWMHWVKQRPGQGLEWIGAIYPGNSDTSYIQKFKGKAKLTAVTSTTSVYMELSSLTNEDSAVYYCTLYDGYYVFAYWGQGTLVTVSA
VL: EIVLTQSPVTLSVTPGDSVSLSCRASRDISNNLHWFQQTSHESPRLLIKYASQSMSGIPSRFSGSGSGTDFTLSINSVETEDFGMYFCQQTNSWPYTFGGGTKLEIK
modifications: Fab
Take B1: the “MACE at thirty days” value in series [2] was “failed to reduce MACE at thirty days”.
